Converted amounts (≈) assume the structure as drawn.
Legend:
Type in all cases: cell-based
[1] = system: Escherichia coli NCTC 8196; experiment: Minimum inhibitory concentration (MIC) in microtitre plates; conditions: for Minimum inhibitory concentration (MIC) E. coli: Table 7, 48 hours at 37° C., MIC = ≦20% growth compared to control; for Minimum inhibitory concentration (MIC) E. coli NCTC 8196: Table 8, * = significant inhibition of growth, but not complete inhibition
How it was run: (§1)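 Compounds in DMSO, 1:2 dilution series; bacteria at 1–5×10^6 CFU/ml diluted 1:100 in CASO broth. Incubation 48 h at 37° C, growth read as OD 620 nm. MIC is the lowest concentration giving ≤20% growth relative to control; duplicates.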

[2] = system: Staphylococcus hominis DMS 20328; experiment: as above; conditions: Table 7; 48 hours at 37° C.; MIC = ≦20% growth compared to control
How it was run: as §1

[3] = system: Pseudomonas aeruginosa CIP A-22; experiment: Minimum inhibitory concentration (MIC), further microorganisms; conditions: Table 8
Description: (§2) Determination of the Minimum Inhibitory Concentration (MIC Value) in Microtitre Plates
(§3) Casein-soybean flour-peptone broth for preparation of pre-cultures of test bacteria and yeast.
(§4) Mycological slant agar for the pre-culture of moulds
(§5) The test substances are pre-dissolved in dimethyl sulfoxide (DMSO) and tested in a dilution series of 1:2.
(§6) Bacteria and yeast are cultured overnight in CASO broth, the mould is cultured overnight on mycological slant agar, and washed off using 10 ml of 0.85% sodium chloride solution (+0.1% Triton X-100).
(§7) All the test organisms are adjusted to an organism count of 1–5×10^6 CFU/ml using 0.85% sodium chloride solution.
(§8) The test substances are pre-pipetted into microtitre plates in amounts of 8 μl per well.
(§9) Pre-diluted organism suspensions are diluted 1:100 in CASO broth (bacteria and yeast) or Sabouraud 2% glucose broth (mould) and are added in amounts of 192 μl per well to the test substances.
(§10) The test batches are incubated for 48 hours at 37° C. (bacteria and yeast) or for 5 days at 28° C. (mould).
(§11) After incubation, the growth is determined on the basis of the turbidity of the test batches (optical density) at 620 nm in a microplate reader.
(§12) The minimum inhibitory concentration (MIC value) is the concentration of substance at which there is found (compared to the growth of the control) an appreciable inhibition of growth (≦20% growth) of the test organisms.
(§13) One microtitre plate is used for each test organism and substance concentration. All the substances are tested in duplicate.

[4] = system: Staphylococcus aureus ATCC 9144; experiment: as above; conditions: Table 8; * = significant inhibition of growth, but not complete inhibition
Description: as §2, §3, §4, §5, §6, §7, §8, §9, §10, §11, §12, §13

[5] = system: Epidermophyton floccosum DSM 10709; experiment: as above; conditions: Table 8; * = significant inhibition of growth, but not complete inhibition
Description: as §2, §3, §4, §5, §6, §7, §8, §9, §10, §11, §12, §13

[6] = system: Aspergillus niger ATCC 6275; experiment: as above; conditions: Table 8; * = significant inhibition of growth, but not complete inhibition
Description: as §2, §3, §4, §5, §6, §7, §8, §9, §10, §11, §12, §13

[7] = system: Trichophyton mentagrophytes ATCC 9533; experiment: as above; conditions: Table 8; * = significant inhibition of growth, but not complete inhibition
Description: as §2, §3, §4, §5, §6, §7, §8, §9, §10, §11, §12, §13

[8] = system: Micrococcus luteus ATCC 9341; experiment: as above; conditions: Table 8; * = significant inhibition of growth, but not complete inhibition
Description: as §2, §3, §4, §5, §6, §7, §8, §9, §10, §11, §12, §13

[9] = system: Salmonella choleraesuis ATCC 10708; experiment: as above; conditions: Table 8
Description: as §2, §3, §4, §5, §6, §7, §8, §9, §10, §11, §12, §13

[10] = system: S. epidermidis ATCC 12228; experiment: as above; conditions: Table 8; * = significant inhibition of growth, but not complete inhibition
Description: as §2, §3, §4, §5, §6, §7, §8, §9, §10, §11, §12, §13

[11] = system: Enterococcus hirae ATCC 10541; experiment: as above; conditions: Table 8; * = significant inhibition of growth, but not complete inhibition
Description: as §2, §3, §4, §5, §6, §7, §8, §9, §10, §11, §12, §13

[12] = system: Candida albicans ATCC 10231; experiment: as above; conditions: Table 8; * = significant inhibition of growth, but not complete inhibition
Description: as §2, §3, §4, §5, §6, §7, §8, §9, §10, §11, §12, §13

[13] = system: Klebsiella pneumonia ATCC 4352; experiment: as above; conditions: Table 8; * = significant inhibition of growth, but not complete inhibition
Description: as §2, §3, §4, §5, §6, §7, §8, §9, §10, §11, §12, §13

Row | Minimum inhibitory concentration (MIC) E. coli [1] | Minimum inhibitory concentration (MIC) E. coli NCTC 8196 [1] | Minimum inhibitory concentration (MIC) S. hominis [2] | Minimum inhibitory concentration (MIC) Pseudomonas aeruginosa CIP A-22 [3] | Minimum inhibitory concentration (MIC) Staphylococcus aureus ATCC 9144 [4] | Minimum inhibitory concentration (MIC) Epidermophyton floccosum DSM 10709 [5] | Minimum inhibitory concentration (MIC) Aspergillus niger ATCC 6275 [6] | Minimum inhibitory concentration (MIC) Trichophyton mentagrophytes ATCC 9533 [7] | Minimum inhibitory concentration (MIC) Micrococcus luteus ATCC 9341 [8] | Minimum inhibitory concentration (MIC) S. epidermidis ATCC 12228 [10] | Minimum inhibitory concentration (MIC) Enterococcus hirae ATCC 10541 [11] | Minimum inhibitory concentration (MIC) Candida albicans ATCC 10231 [12] | Minimum inhibitory concentration (MIC) Klebsiella pneumonia ATCC 4352 [13] | SMILES | Minimum inhibitory concentration (MIC) Salmonella choleraesuis ATCC 10708 [9]
1 | 60 µg/mL (≈ 162 µM) | >60 µg/mL | 15 µg/mL (≈ 40.6 µM) | >60 µg/mL | 60 µg/mL (≈ 162 µM) | >60 µg/mL | >60 µg/mL | >60 µg/mL | 7.5 µg/mL (≈ 20.3 µM) | 60 µg/mL (≈ 162 µM) | 60 µg/mL (≈ 162 µM) | 7.5 µg/mL (≈ 20.3 µM) | >60 µg/mL | Cc1cc(NCCCCCCCCCCCCN)nc(-c2ccccn2)n1 [compound 19] | >60 µg/mL
2 | 60 µg/mL (≈ 201 µM) | 120 µg/mL (≈ 402 µM) | 3.75 µg/mL (≈ 12.6 µM) | >120 µg/mL | 120 µg/mL (≈ 402 µM) | >60 µg/mL | >60 µg/mL | >60 µg/mL | 120 µg/mL (≈ 402 µM) | 120 µg/mL (≈ 402 µM) | 120 µg/mL (≈ 402 µM) | 120 µg/mL (≈ 402 µM) | 120 µg/mL (≈ 402 µM) | CCCCCCCCNc1cc(C)nc(-c2ccccn2)n1 [compound 21] | >120 µg/mL
3 | 120 µg/mL (≈ 384 µM) | >60 µg/mL | 3.75 µg/mL (≈ 12 µM) | >60 µg/mL | 7.5 µg/mL (≈ 24 µM) | *7.5 μg/mL | 60 µg/mL (≈ 192 µM) | 15 µg/mL (≈ 48 µM) | <3.75 µg/mL | <3.75 µg/mL | <3.75 µg/mL | 15 µg/mL (≈ 48 µM) | >60 µg/mL | CCCCCCCCCNc1cc(C)nc(-c2ccccn2)n1 [compound 22] | >60 µg/mL
4 | 80 µg/mL (≈ 226 µM) | >60 µg/mL | 2.5 µg/mL (≈ 7.05 µM) | >60 µg/mL | <3.75 µg/mL | 60 µg/mL (≈ 169 µM) | >60 µg/mL | >60 µg/mL | <3.75 µg/mL | 3.75 µg/mL (≈ 10.6 µM) | *15 μg/mL | 30 µg/mL (≈ 84.6 µM) | >60 µg/mL | CCCCCCCCCCCCNc1cc(C)nc(-c2ccccn2)n1 [compound 24] | >60 µg/mL

Further lines, the compound ahead of its results:

Row | SMILES | Minimum inhibitory concentration (MIC) E. coli [1] | Minimum inhibitory concentration (MIC) E. coli NCTC 8196 [1] | Minimum inhibitory concentration (MIC) S. hominis [2] | Minimum inhibitory concentration (MIC) Pseudomonas aeruginosa CIP A-22 [3] | Minimum inhibitory concentration (MIC) Staphylococcus aureus ATCC 9144 [4] | Minimum inhibitory concentration (MIC) Epidermophyton floccosum DSM 10709 [5] | Minimum inhibitory concentration (MIC) Aspergillus niger ATCC 6275 [6] | Minimum inhibitory concentration (MIC) Trichophyton mentagrophytes ATCC 9533 [7] | Minimum inhibitory concentration (MIC) Micrococcus luteus ATCC 9341 [8] | Minimum inhibitory concentration (MIC) S. epidermidis ATCC 12228 [10] | Minimum inhibitory concentration (MIC) Enterococcus hirae ATCC 10541 [11] | Minimum inhibitory concentration (MIC) Candida albicans ATCC 10231 [12] | Minimum inhibitory concentration (MIC) Klebsiella pneumonia ATCC 4352 [13] | Minimum inhibitory concentration (MIC) Salmonella choleraesuis ATCC 10708 [9]
5 | CCc1c(C)nc(-c2ccccn2)nc1NCCCCCCCCCCCCN [compound 7] | 120 µg/mL (≈ 302 µM) | >60 µg/mL | 120 µg/mL (≈ 302 µM) | >60 µg/mL | >60 µg/mL | >30 µg/mL | >30 µg/mL | >30 µg/mL | >60 µg/mL | >60 µg/mL | >60 µg/mL | >60 µg/mL | >60 µg/mL | >60 µg/mL
6 | CCCCCCCCCCCCNc1nc(-c2ccccn2)nc(C)c1CC [compound 12] | 120 µg/mL (≈ 314 µM) | >60 µg/mL | 7.5 µg/mL (≈ 19.6 µM) | >60 µg/mL | 15 µg/mL (≈ 39.2 µM) | *30 μg/mL | >60 µg/mL | 60 µg/mL (≈ 157 µM) | <3.75 µg/mL | *7.5 μg/mL | 7.5 µg/mL (≈ 19.6 µM) | *60 μg/mL | >60 µg/mL | >60 µg/mL
7 | Cc1cc(NCCCCCCCCCN)nc(-c2ccccn2)n1 [compound 18] | >120 µg/mL | >60 µg/mL | 120 µg/mL (≈ 366 µM) | >60 µg/mL | >60 µg/mL | >60 µg/mL | >60 µg/mL | >60 µg/mL | >60 µg/mL | >60 µg/mL | >60 µg/mL | >60 µg/mL | >60 µg/mL | >60 µg/mL
8 | NCCCCCCCCCNc1cc(C(F)(F)F)nc(-c2ccccn2)n1 [compound 30] | 120 µg/mL (≈ 315 µM) | >60 µg/mL | 120 µg/mL (≈ 315 µM) | >60 µg/mL | >60 µg/mL | >60 µg/mL | >60 µg/mL | >60 µg/mL | 60 µg/mL (≈ 157 µM) | >60 µg/mL | >60 µg/mL | >60 µg/mL | >60 µg/mL | >60 µg/mL
9 | CC(C)c1cc(NCCCCCCCCCN)nc(-c2ccccn2)n1 [compound 42] | 120 µg/mL (≈ 338 µM) | >60 µg/mL | 30 µg/mL (≈ 84.4 µM) | >60 µg/mL | 60 µg/mL (≈ 169 µM) | >60 µg/mL | >60 µg/mL | >60 µg/mL | *15 μg/mL | 60 µg/mL (≈ 169 µM) | >60 µg/mL | >60 µg/mL | >60 µg/mL | >60 µg/mL

From patent publication US7015228B2, “4-amino-2-(2-pyridyl)pyrimidines as microbicidal active substances” (Ciba Specialty Chemicals Corporation, priority 2001, dated 2006)
